We go through 23 compounds from patent US10689354B2, “Aminoazole derivative” (Teijin Pharma Limited, priority 2015, dated 2020).

One assay deals with T1, human androgen receptor (Homo sapiens, UniProt P10275).
T1 construct: expressed in transfected cells; host or cells: HEK293
T1 sequence (P10275 1-920): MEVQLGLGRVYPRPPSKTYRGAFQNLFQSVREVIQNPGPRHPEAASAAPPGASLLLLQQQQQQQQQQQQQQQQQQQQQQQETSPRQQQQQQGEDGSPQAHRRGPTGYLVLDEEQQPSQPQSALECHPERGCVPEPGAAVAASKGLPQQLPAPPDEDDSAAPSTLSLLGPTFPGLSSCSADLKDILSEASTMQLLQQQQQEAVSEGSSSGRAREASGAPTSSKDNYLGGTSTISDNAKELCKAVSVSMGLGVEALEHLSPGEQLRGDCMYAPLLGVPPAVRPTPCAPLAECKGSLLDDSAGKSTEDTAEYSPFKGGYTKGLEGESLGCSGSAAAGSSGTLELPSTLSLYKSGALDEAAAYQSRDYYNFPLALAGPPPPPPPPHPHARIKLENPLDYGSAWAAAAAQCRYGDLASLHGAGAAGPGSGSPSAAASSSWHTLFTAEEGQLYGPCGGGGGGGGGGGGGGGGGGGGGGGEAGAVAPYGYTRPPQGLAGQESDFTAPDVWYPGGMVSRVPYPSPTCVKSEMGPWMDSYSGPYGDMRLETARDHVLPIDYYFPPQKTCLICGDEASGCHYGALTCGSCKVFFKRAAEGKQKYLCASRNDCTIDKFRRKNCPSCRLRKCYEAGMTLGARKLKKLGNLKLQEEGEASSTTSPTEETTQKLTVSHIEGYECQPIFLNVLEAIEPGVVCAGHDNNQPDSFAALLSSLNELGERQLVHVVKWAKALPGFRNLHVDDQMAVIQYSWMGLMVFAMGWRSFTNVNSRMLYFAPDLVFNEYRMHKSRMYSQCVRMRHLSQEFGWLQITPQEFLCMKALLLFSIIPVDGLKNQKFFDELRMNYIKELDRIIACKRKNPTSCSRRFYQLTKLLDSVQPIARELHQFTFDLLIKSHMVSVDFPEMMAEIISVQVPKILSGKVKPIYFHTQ
In words: Reporter assay of an androgen receptor responsive sequence (luciferase, transiently transfected HEK293 cells). Format: cell-based. The note with it: 24 hours incubation, relative to activity of 100 nM DHT, read-out: AR transcriptive activity (pEC50) (converted). The procedure, abridged:
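Agonism scored as pEC50, fitted by 4-parameter curve against the response to 100 nM DHT, from dual-luciferase readout after 24 h compound treatment. Cells were HEK293 co-transfected (3 h) with human AR expression vector, androgen-responsive firefly reporter and Renilla control, in charcoal-stripped serum.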
(In a reporter assay the amount or activity of a reporter protein is the signal.)

The target of assay [1] is T2, androgen receptor (AR-LBD) (Rattus norvegicus, UniProt P15207).
T2 construct: 5 μL of 2×AR-LBD/Fluoromone AL Red Complex contained in the kit; purchased Invitrogen
T2 sequence (P15207 651-882 limits assumed): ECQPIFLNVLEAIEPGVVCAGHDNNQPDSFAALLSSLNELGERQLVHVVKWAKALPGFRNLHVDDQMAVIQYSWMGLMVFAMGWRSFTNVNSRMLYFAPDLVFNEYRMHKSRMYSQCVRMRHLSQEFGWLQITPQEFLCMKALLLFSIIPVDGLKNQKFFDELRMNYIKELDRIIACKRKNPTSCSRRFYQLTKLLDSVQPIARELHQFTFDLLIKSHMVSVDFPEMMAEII
In words: Evaluation of androgen receptor affinity (PolarScreen Androgen Receptor Competitor Assay Kit, Red; fluorescence polarization). To be noted: 22° C. for 5 hours, relative to binding rate of 1 μM DHT, read-out: AR affinity (pEC50) (converted). The procedure, abridged: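 Test compound and the 2× AR-LBD/Fluoromone AL Red complex were combined in duplicate wells. After reacting 5 h at 22° C, polarization was measured. pEC50 was derived by 4-parameter fitting, normalizing to binding obtained with 1 μM dihydrotestosterone.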
(In general: Polarisation of emitted light reports the rotation of a fluorescent probe.)

SMILES strings stand for the structures.

In the case of `Cc1sc(N(CC2Cc3ccccc3C2)c2ccc(C#N)cc2)nc1C(=O)NS(C)(=O)=O` [Compound 454, 2-[4-cyano-N-(indan-2-ylmethyl)anilino]-5-methyl-N-methylsulfonyl-thiazole-4-carboxamide], the EC50 on human androgen receptor was 0.251 µM; in assay [1], 0.0501 µM.

In the case of `COc1ccccc1CN(c1ccc(C#N)cc1)c1nc(C(=O)NS(C)(=O)=O)c(C)s1` [Compound 455, 2-[4-cyano-N-[(2-methoxyphenyl)methyl]anilino]-5-methyl-N-methylsulfonyl-thiazole-4-carboxamide], the EC50 at human androgen receptor is 0.501 µM; in assay [1], 0.1 µM.

Regarding `Cc1sc(N(Cc2csc(C(C)C)n2)c2ccc(C#N)cc2)nc1C(=O)NS(C)(=O)=O` [Compound 456, 2-[4-cyano-N-[(2-isopropylthiazol-4-yl)methyl]anilino]-5-methyl-N-methylsulfonyl-thiazole-4-carboxamide], the EC50 on human androgen receptor was 0.2 µM; in assay [1], 0.0501 µM.

Regarding `Cc1sc(N(Cc2ccccc2O)c2ccc(C#N)cc2)nc1C(=O)NS(C)(=O)=O` [Compound 461, 2-[4-cyano-N-[(2-hydroxyphenyl)methyl]anilino]-5-methyl-N-methylsulfonyl-thiazole-4-carboxamide], the EC50 at human androgen receptor was 0.158 µM; in assay [1], 0.1 µM.

`Cc1sc(N(CC(=O)c2ccccc2)Cc2ccccc2)nc1C(=O)NS(C)(=O)=O` [Compound 463, 2-[benzyl(phenacyl)amino]-5-methyl-N-methylsulfonyl-thiazole-4-carboxamide]: the results for the EC50 (at human androgen receptor; in assay [1]) were 5.01 µM and 0.316 µM, respectively.

As for `Cc1sc(N(Cc2csc3cccc(C)c23)c2ccc(C#N)cc2)nc1C(=O)NS(C)(=O)=O` [Compound 464, 2-[4-cyano-N-[(4-methylbenzothiophen-3-yl)methyl]anilino]-5-methyl-N-methylsulfonyl-thiazole-4-carboxamide], the EC50 was 5.01 µM at human androgen receptor and 0.0631 µM in assay [1].

In the case of `Cc1sc(N(Cc2csc(COc3ccccc3)n2)c2ccc(C#N)cc2)nc1C(=O)NS(C)(=O)=O` [Compound 465, 2-[4-cyano-N-[[2-(phenoxymethyl)thiazol-4-yl]methyl]anilino]-5-methyl-N-methylsulfonyl-thiazole-4-carboxamide], the figures for the EC50 (on human androgen receptor; in assay [1]) were 0.794 µM and 0.0251 µM, respectively.

On to `Cc1sc(N(Cc2cnc(C3CC3)s2)c2ccc(C#N)cc2)nc1C(=O)NS(C)(=O)=O` [Compound 466, 2-[4-cyano-N-[(2-cyclopropylthiazol-5-yl)methyl]anilino]-5-methyl-N-methylsulfonyl-thiazole-4-carboxamide], for which the EC50 at human androgen receptor is 0.398 µM; in assay [1], 0.1 µM.

Take `Cc1sc(N(Cc2ccc(F)cc2)c2ccc(C(F)(F)F)nc2)nc1C(=O)NS(C)(=O)=O` [Compound 469, 2-[(4-fluorophenyl)methyl-[6-(trifluoromethyl)-3-pyridyl]amino]-5-methyl-N-methylsulfonyl-thiazole-4-carboxamide]: the EC50 at human androgen receptor is 0.316 µM; in assay [1], 0.158 µM.

In the case of `Cc1sc(N(Cc2ccc(Cl)cc2)c2ccc(C(F)(F)F)nc2)nc1C(=O)NS(C)(=O)=O` [Compound 470, 2-[(4-chlorophenyl)methyl-[6-(trifluoromethyl)-3-pyridyl]amino]-5-methyl-N-methylsulfonyl-thiazole-4-carboxamide], the EC50 on human androgen receptor was 0.158 µM; in assay [1] it was 0.126 µM.

Consider `Cc1sc(N(Cc2ccc(OC(F)(F)F)cc2)c2ccc(C(F)(F)F)nc2)nc1C(=O)NS(C)(=O)=O` [Compound 471, 5-methyl-N-methylsulfonyl-2-[[4-(trifluoromethoxy)phenyl]methyl-[6-(trifluoromethyl)-3-pyridyl]amino]thiazole-4-carboxamide], for which the EC50 at human androgen receptor is 1 µM; in assay [1] it was 0.1 µM.

On to `Cc1sc(N(Cc2ccc(OC(F)F)cc2)c2ccc(C(F)(F)F)nc2)nc1C(=O)NS(C)(=O)=O` [Compound 472, 2-[[4-(difluoromethoxy)phenyl]methyl-[6-(trifluoromethyl)-3-pyridyl]amino]-5-methyl-N-methylsulfonyl-thiazole-4-carboxamide], for which the EC50 on human androgen receptor was 0.398 µM; in assay [1] it was 0.126 µM.

Regarding `Cc1sc(N(CC[Si](C)(C)C)c2ccc(C#N)cc2)nc1C(=O)NS(C)(=O)=O` [Compound 476, 2-[4-cyano-N-(2-trimethylsilylethyl)anilino]-5-methyl-N-methylsulfonyl-thiazole-4-carboxamide], the EC50 on human androgen receptor was > 10 µM; in assay [1], 0.2 µM.

As for `Cc1sc(N(Cc2ccc3c(c2)CCO3)c2ccc(C#N)cc2)nc1C(=O)NS(C)(=O)=O` [Compound 478, 2-[4-cyano-N-(2,3-dihydrobenzofuran-5-ylmethyl)anilino]-5-methyl-N-methylsulfonyl-thiazole-4-carboxamide], the results for the EC50 (on human androgen receptor; in assay [1]) were 0.0251 µM and 0.0631 µM, respectively.

Turning to `Cc1sc(N(Cc2cc3ccccc3o2)c2ccc(C#N)cc2)nc1C(=O)NS(C)(=O)=O` [Compound 479, 2-[N-(benzofuran-2-ylmethyl)-4-cyano-anilino]-5-methyl-N-methylsulfonyl-thiazole-4-carboxamide], the EC50 (on human androgen receptor; in assay [1]) was 0.0631 µM in each case.

With `Cc1sc(N(CCC2CC3CCC2C3)c2ccc(C#N)cc2)nc1C(=O)NS(C)(=O)=O` (stereo not shown) [Compound 482, 2-[4-cyano-N-(2-norbornan-2-ylethyl)anilino]-5-methyl-N-methylsulfonyl-thiazole-4-carboxamide], the EC50 at human androgen receptor was 0.158 µM; in assay [1], 0.0501 µM.

On to `Cc1sc(N(Cc2ccc3c(c2)C(O)CC3)c2ccc(C#N)cc2)nc1C(=O)NS(C)(=O)=O` (stereo not shown) [Compound 484, 2-[4-cyano-N-[(3-hydroxyindan-5-yl)methyl]anilino]-5-methyl-N-methylsulfonyl-thiazole-4-carboxamide], for which the figures for the EC50 (at human androgen receptor; in assay [1]) were 0.126 µM and 0.158 µM, respectively.

With `Cc1sc(N(CCCC2CCCC2)c2ccc(C#N)cc2)nc1C(=O)NS(C)(=O)=O` [Compound 485, 2-[4-cyano-N-(3-cyclopentylpropyl)anilino]-5-methyl-N-methylsulfonyl-thiazole-4-carboxamide], the EC50 at human androgen receptor is 0.126 µM; in assay [1], 0.02 µM.

In the case of `Cc1sc(N(Cc2ccc3c(c2)C(O)CCO3)c2ccc(C#N)cc2)nc1C(=O)NS(C)(=O)=O` (stereo not shown) [Compound 486, 2-[4-cyano-N-[(4-hydroxychroman-6-yl)methyl]anilino]-5-methyl-N-methylsulfonyl-thiazole-4-carboxamide], the EC50 (on human androgen receptor; in assay [1]) was 0.251 µM in each case.

Take `Cc1sc(N(Cc2ccccc2)c2ccc(C#N)cc2F)nc1C(=O)NS(C)(=O)=O` [Compound 487, 2-(N-benzyl-4-cyano-2-fluoro-anilino)-5-methyl-N-methylsulfonyl-thiazole-4-carboxamide]: the EC50 was 0.158 µM on human androgen receptor and 0.0794 µM in assay [1].

Regarding `Cc1sc(N(CCc2cccnc2)Cc2ccc(Cl)cc2)nc1C(=O)NS(C)(=O)=O` [Compound 488, 2-[(4-chlorophenyl)methyl-[2-(3-pyridyl)ethyl]amino]-5-methyl-N-methylsulfonyl-thiazole-4-carboxamide], the results for the EC50 (at human androgen receptor; in assay [1]) were > 10 µM and > 2 µM, respectively.

`Cc1sc(N(CC2CCC3(CC2)CC3)c2ccc(C#N)cc2)nc1C(=O)NS(C)(=O)=O` [Compound 489, 2-[4-cyano-N-(spiro[2.5]octan-6-ylmethyl)anilino]-5-methyl-N-methylsulfonyl-thiazole-4-carboxamide]: the figures for the EC50 (at human androgen receptor; in assay [1]) were 1 µM and 0.0794 µM, respectively.

Take `COc1cccc(CN(c2ccc(C#N)cc2)c2nc(C(=O)NS(C)(=O)=O)c(C)s2)n1` [Compound 491, 2-[4-cyano-N-[(6-methox-2-pyridyl)methyl]anilino]-5-methyl-N-methylsulfonyl-thiazole-4-carboxamide]: the EC50 was 0.316 µM at human androgen receptor and 0.1 µM in assay [1].
